The target in one test is T1, MAT2A (Homo sapiens, UniProt P31153).
T1 construct: purchased BPS Bioscience
The experiment in a line: MAT2A enzymatic assay (MAT2A Inhibitor Enzymatic Screening Kit). It counts as biochemical. Particulars: MAT2A enzyme, colorimetric detection at 630 nm; read-out: Inhibitory activity against Enzyme (IC50: nM). On the procedure: The inhibitory effect of the test compounds on the enzymatic activity of MAT2A was determined using MAT2A Inhibitor Enzymatic Screening Kit (BPS Bioscience).
1) Test compounds were dissolved in DMSO and mixed well until the test compounds were completely dissolved. All compounds were diluted with DMSO to a starting concentration of 2 mM, and diluted at a 3-fold ratio to a total of 10 concentration gradients. Duplicate wells were set. The compounds were added to the reaction system at a ratio of 1:100 (20 μM of the maximum final concentration) during detection. 100× positive control (1 mM AGI-24512) and 100× negative control (100% DMSO) were prepared.
2) 200 nL of each of the diluted compounds were transferred to each well of the reaction plate (Corning 3702) using an Echo 550 pipetting system, and the reaction plate was sealed with a sealing film, and centrifuged at 1000 g for 1 minute. The final concentration of DMSO was 1%.
3) Preparation of 1×MAT2A enzyme reaction buffer: 1× volume of 5×MAT2A enzyme reaction buffer was mixed well with 4× volumes of water.
4) 2×MAT2A enzyme solution was prepared with 1×MAT2A enzyme reaction buffer.
5) A 10 μL of 2×MAT2A enzyme solution was added to each well of the 384-reaction plate (Corning 3702), and the plate was sealed with a sealing film.
6) The plate was centrifuged at 1000 g for 60 seconds and incubated at room temperature for 30 minutes.
7) A mixture of 2×L-Methionine and ATP was prepared with 1×MAT2A enzyme reaction buffer.
8) 10 μL of the mixture of 2×L-Methionine and ATP was added to each well of the 384-reaction plate (Corning 3702), and the plate was sealed with a sealing film. The total reaction system was 20 μL.
9) The plate was centrifuged at 1000 g for 60 seconds and incubated at room temperature for 60 minutes.
10) The assay buffer Colorimetric Detection Rebgent was prepared.
11) 20 μL of the assay buffer was added to each well. The plate was centrifuged at 1000 g for 30 seconds and reacted at room temperature for 15 minutes.
12) Fluorescence signal at 630 nm was detected by a multifunctional microplate reader (PerkinElmer, Nivo).

Another test concerns HCT116-MTAP−/− cells. The test can be described thus: Cell proliferation inhibition, HCT116 MTAP-/- (Cell Titer Glo, 5 days). The format is cell-based. Particulars: Homo sapiens, HCT-116, 120 h, 5 days treatment, read-out: HCT116 MTAP−/− cell proliferation inhibitory activity IC50:
The method, then:
(§1) The specific operation procedures were as follows. Tumor cells were treated with test compounds for 5 days, and the effect of the test compounds on the proliferation of tumor cells was evaluated. HCT116-MTAP^−/− and wild-type control HCT116-WT (colorectal cancer cells) cells were seeded in a 384-well plate at a density of 600 cells/well, and at the same time, different concentrations of the test compounds (starting from 20 μM, 10 concentration gradients) were added. The cells were incubated at 37° C., 5% CO2, and saturated humidity for 5 days.
(§2) Cell proliferation was detected using an ATP-based Cell Proliferation Assay Kit (Cell Titer Glo, Promega Corporation). Cells were equilibrated at room temperature for 30 minutes and then treated with Cell Titer Glo reagent. The plate was then covered with aluminum foil and shaken for 15 minutes to allow mixing well and lysis. Chemiluminescence detection was performed using a multifunctional microplate reader (Envision 2105, PerkinElmer). A blank well (blank, cell-free) and a DMSO control well were set.
(§3) The inhibition rate (IR) of the test compounds was calculated using the following formula: […]
(§4) GraphPad Prism was used for graphing, data analysis and IC50 calculations.

Another test deals with HCT116-WT cells. The experiment in a line: Cell proliferation inhibition, HCT116 wild-type (Cell Titer Glo, 5 days). It counts as cell-based. Particulars: Homo sapiens, HCT-116, 120 h, 5 days treatment, maximum inhibition rate <50% expressed as IC50 > maximum initial concentration, read-out: HCT116 MTAP+/+ cell proliferation inhibitory activity IC50:
The method, then: as §1, §2, §3, §4
For orientation: ATP-based viability assays read luminescence as a measure of living cells.

Where only a bound is given, the exact number is not on record here.

T1 sequence (P31153 whole entry): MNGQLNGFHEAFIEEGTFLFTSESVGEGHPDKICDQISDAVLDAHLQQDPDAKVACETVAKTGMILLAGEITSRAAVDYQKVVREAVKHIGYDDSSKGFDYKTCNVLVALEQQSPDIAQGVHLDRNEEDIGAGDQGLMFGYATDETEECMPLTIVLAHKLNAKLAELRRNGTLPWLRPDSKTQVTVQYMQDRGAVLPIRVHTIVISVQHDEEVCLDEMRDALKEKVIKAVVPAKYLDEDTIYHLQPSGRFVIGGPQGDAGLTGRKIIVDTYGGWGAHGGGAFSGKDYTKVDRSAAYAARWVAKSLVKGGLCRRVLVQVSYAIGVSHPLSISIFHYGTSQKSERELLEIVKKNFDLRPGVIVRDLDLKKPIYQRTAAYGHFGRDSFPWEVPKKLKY

Consider `CN1Cc2cc(Cl)cc3c2c1nc(=O)n3-c1cccnc1Cl` (single isomer, unassigned) [Compound A16-P2, 7-chloro-4-methyl-1-(2-chloropyridin-3-yl)-4,5-dihydropyrrolo[2,3,4-de]quinazolin-2(1H)-one], for which the IC50 on MAT2A is no more than 50 nM. For `Cc1ncccc1-n1c(=O)nc2c3c(cc(Cl)cc31)CN2` [Compound A1, 7-chloro-1-(2-methylpyridin-3-yl)-4,5-dihydropyrrolo[2,3,4-de]quinazolin-2(1H)-one], the IC50 at MAT2A was no more than 50 nM; in the test with HCT116-MTAP−/− cells it was 199 nM; with HCT116-WT cells, greater than 20000 nM. The like results for `Cc1ncccc1-n1c(=O)nc2c3c(cc(Cl)cc31)CN2C` [Compound A2, 7-chloro-4-methyl-1-(2-methylpyridin-3-yl)-4,5-dihydropyrrolo[2,3,4-de]quinazolin-2(1H)-one] were, in that order, no more than 50 nM, 45 nM and greater than 20000 nM. `Cc1ncccc1-n1c(=O)nc2c3c(cc(Cl)cc31)CN2c1ccccc1` [Compound A3, 7-chloro-4-phenyl-1-(2-methylpyridin-3-yl)-4,5-dihydropyrrolo[2,3,4-de]quinazolin-2(1H)-one]: the IC50 on MAT2A was no more than 50 nM. As to `CN1Cc2cc(Cl)cc3c2c1nc(=O)n3-c1cccnc1Cl` [Compound A16, 7-chloro-4-methyl-1-(2-chloropyridin-3-yl)-4,5-dihydropyrrolo[2,3,4-de]quinazolin-2(1H)-one], the IC50 on MAT2A was no more than 50 nM; with HCT116-MTAP−/− cells, 112 nM; in the test with HCT116-WT cells, greater than 20000 nM. `Cc1ncccc1-n1c(=O)nc2c3c(cc(C(F)(F)F)nc31)CN2C` [Compound A19]: the IC50 at MAT2A was greater than 100 nM. In the case of `CN1Cc2cc(C(F)(F)F)nc3c2c1nc(=O)n3-c1cccnc1Cl` [Compound A29], the IC50 at MAT2A was greater than 100 nM. With `Cc1ncccc1-n1c(=O)nc2c3c(cc(Cl)cc31)CN2c1ccc2nn(C)cc2c1` [Compound A38, 7-chloro-4-(2-methyl-2H-indazol-5-yl)-1-(2-methylpyridin-3-yl)-4,5-dihydropyrrolo[2,3,4-de]quinazolin-2(1H)-one], the IC50 on MAT2A was no more than 50 nM; in the test with HCT116-MTAP−/− cells, 20 nM; in the test on HCT116-WT cells, greater than 20000 nM. Consider `Cc1ncccc1-n1c(=O)nc2c3c(cc(Cl)cc31)CN2c1ccc(Cl)cc1` [Compound A39, 7-chloro-4-(4-chlorophenyl)-1-(2-methylpyridin-3-yl)-4,5-dihydropyrrolo[2,3,4-de]quinazolin-2(1H)-one], for which the IC50 is no more than 50 nM at MAT2A, 308 nM with HCT116-MTAP−/− cells and 1350 nM in the test on HCT116-WT cells. With `COc1ncccc1-n1c(=O)nc2c3c(cc(Cl)cc31)CN2C` [Compound A40, 7-chloro-1-(2-methoxypyridin-3-yl)-4-methyl-4,5-dihydropyrrolo[2,3,4-de]quinazolin-2(1H)-one], the IC50 on MAT2A was 50 to 100 nM. Regarding `Cc1ncccc1-n1c(=O)nc2c3c(cc(Cl)cc31)CCCN2` [Compound B1, 9-chloro-1-(2-methylpyridin-3-yl)-4,5,6,7-tetrahydroazepino[2,3,4-de]quinazolin-2(1H)-one], the IC50 at MAT2A was greater than 100 nM. Regarding `Cc1ncccc1-n1c(=O)nc2c3c(cc(Cl)cc31)OCCN2` [Compound B2, 9-chloro-1-(2-methylpyridin-3-yl)-5,6-dihydro-1H-[1,4]oxazepino[5,6,7-de]quinazolin-2(4H)-one], the IC50 on MAT2A was greater than 100 nM. As to `Cc1ncccc1-n1c(=O)nc2c3c(cc(Cl)cc31)NCC(O)N2C` (stereo not drawn) [Compound B3, 9-chloro-5-hydroxy-4-methyl-1-(2-methylpyridin-3-yl)-4,5,6,7-tetrahydro-[1,4]diazepino[5,6,7-de]quinazolin-2(1H)-one], the IC50 at MAT2A fell in the range of 50 to 100 nM. On to `Cc1ncccc1-n1c(=O)nc2c3c(cc(C(F)(F)F)nc31)CCN2C` [Compound C1, 4-methyl-1-(2-methylpyridin-3-yl)-8-(trifluoromethyl)-5,6-dihydro-1H-pyrimidino[4,5,6-ij][2,7]naphthyridin-2(4H)-one], for which the IC50 at MAT2A is no more than 50 nM.

The values above are taken from patent US20250388591A1 (CSPC ZHONGQI PHARMACEUTICAL TECHNOLOGY (SHIJIAZHUANG) CO., …, priority 2022, published 2025).
